One assay has as its target T1, EDG1 (Homo sapiens, UniProt P21453).
T1 construct: expressed in transfected cells; host or cells: T lymphoid cell line (Jurkat, EDG1 #15 clone), retroviral TIM EDG1 vector, tetracycline-regulated
As to the kind of experiment: Migration assay employing EDG1 as a migration molecule (T lymphoid cells overexpressing EDG1 migrating toward S1P, 96-well, CyQuant GR fluorescence). The settings on record: migration in response to S1P, hydrochloride. The class given is cell-based. Here is the method:
(§1) Both cell lines were used to optimize assay parameters in order to maximize accuracy and throughput in an automated 96-well format. Compounds were added together with S1P in bottom receiver plate; lipid starved cells were placed in the upper filter plate. The T cell migration may be finished in 2 to 4 hours. The cells which migrated to the receiver plate were stained with a fluorescence dye (CyQuant GR™) and detected by a fluorescence plate reader.
On day one, EDG1 expressing cells were grown at 0.4 millions/ml in RPMI 1640 containing 10% lipid-free serum (Charcoal-Dextran-Stripped Fetal Bovine Serum, Cat# 100-502 (Gemini Bioproducts™)) for 24 hours. EDG1 cells are maintained below 1 million/ml at all times. On the next day, cells were spun down, washed once with serum-free medium and re-suspended in RPMI 1640 containing 0.1% BSA (fat-free, cell culture tested) (Cat# A8806 (SIGMA ALDRICH FLUKA CHEMICALS™)) at a density of 6×10^6 per ml. 170 μl RPMI 1640 (0.1% BSA) containing 20 nM S1P (Cat# SL-140 (BioMol™)) and/or desired drugs were added to the receiver plate of […] Millipore Multiscreen MIC™ plates (Cat# MAMI C3S 10, 3 um pore size (Millipore™)) and the filter plates were carefully placed over the receiver plate. […] After 30 min agitating at RT, the plate was read in a fluorescence plate reader using 480/520 nm filter set.

The next assay addresses T2, EDG3 (Homo sapiens, UniProt Q99500).
T2 construct: expressed in transfected cells; host or cells: T lymphoid cell line (Jurkat, EDG3 #1 clone), pNIGEDG3 vector, constitutive expression
As to the kind of experiment: Migration assay employing EDG3 as a migration molecule (T lymphoid cells overexpressing EDG3 migrating toward S1P, 96-well, CyQuant GR fluorescence). The assay is classed as cell-based. Here is the method: as §1
On day one, EDG3 expressing cells were grown at 0.8 millions/ml in RPMI 1640 containing 10% lipid-free serum (Charcoal-Dextran-Stripped Fetal Bovine Serum, Cat# 100-502 (Gemini Bioproducts™)) for 24 hours. EDG3 cells are maintained below 3 million/ml at all times. On the next day, cells were spun down, washed once with serum-free medium and re-suspended in RPMI 1640 containing 0.1% BSA (fat-free, cell culture tested) (Cat# A8806 (SIGMA ALDRICH FLUKA CHEMICALS™)) at a density of 8×10^6 per ml. 170 μl RPMI 1640 (0.1% BSA) containing 60 nM S1P (Cat# SL-140 (BiOMOl™)) and/or desired drugs were added to the receiver plate of […] Millipore Multiscreen MIC plates (Cat# MAMI C3S 10, 3 um pore size (Millipore™)) and the filter plates were carefully placed over the receiver plate. […] After 30 min agitating at RT, the plate was read in a fluorescence plate reader using 480/520 nm filter set.

Molecules are shown by their SMILES. Entries after “also recorded” stand apart in the source; their conditions may differ. Structures can show the parent of a compound that is named as a salt.

T2 sequence (Q99500 whole entry): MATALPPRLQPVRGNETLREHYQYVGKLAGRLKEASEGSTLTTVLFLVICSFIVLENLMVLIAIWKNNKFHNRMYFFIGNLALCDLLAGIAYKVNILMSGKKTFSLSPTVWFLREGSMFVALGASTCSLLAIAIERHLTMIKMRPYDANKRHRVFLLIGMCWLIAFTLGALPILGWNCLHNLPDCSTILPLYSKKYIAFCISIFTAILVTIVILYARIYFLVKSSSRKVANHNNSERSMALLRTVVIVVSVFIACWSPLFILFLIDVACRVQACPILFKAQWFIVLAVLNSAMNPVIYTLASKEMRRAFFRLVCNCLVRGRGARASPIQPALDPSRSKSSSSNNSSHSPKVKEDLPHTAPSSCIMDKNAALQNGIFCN
T1 sequence (P21453 whole entry): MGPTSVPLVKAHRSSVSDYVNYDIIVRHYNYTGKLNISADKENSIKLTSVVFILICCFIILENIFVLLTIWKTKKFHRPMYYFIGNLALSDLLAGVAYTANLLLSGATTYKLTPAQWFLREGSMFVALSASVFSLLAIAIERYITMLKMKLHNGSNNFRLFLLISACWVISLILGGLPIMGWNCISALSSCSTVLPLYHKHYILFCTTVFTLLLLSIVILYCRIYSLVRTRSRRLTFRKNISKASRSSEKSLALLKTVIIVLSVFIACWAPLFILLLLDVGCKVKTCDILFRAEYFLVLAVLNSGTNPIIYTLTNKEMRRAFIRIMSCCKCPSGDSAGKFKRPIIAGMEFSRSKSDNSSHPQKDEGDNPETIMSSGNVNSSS

With `CCCCCCCCc1ccc(CCC(N)(CO)CO)cc1` [FTY720, 2-amino-2(2-[4-octylphenylethyl)-1,3-propanediol hydrochloride], the “inhibition of migration of EDG1 #15 clone” value against EDG1 is given as “inhibition of migration; also recorded: specifically inhibit; also recorded: inhibits the migration of EDG1#15 clone”. Turning to `Cc1ccc(C(=O)Nc2ccc(S(=O)(=O)O)c3cc(S(=O)(=O)O)cc(S(=O)(=O)O)c23)cc1NC(=O)c1cccc(NC(=O)Nc2cccc(C(=O)Nc3cc(C(=O)Nc4ccc(S(=O)(=O)O)c5cc(S(=O)(=O)O)cc(S(=O)(=O)O)c45)ccc3C)c2)c1` [suramin], the “differential inhibition of EDG1 and EDG3 migration” value on EDG3 (EDG1 versus EDG3 clones, FIG. 10B) is “differential inhibition of EDG1 and EDG3 migration”. The “inhibition of migration of EDG3 #1 clone” value at EDG3 (EDG3-overexpressing T lymphoid cells, migration in response to S1P) is given as “specifically inhibit; also recorded: inhibition of EDG3 #1 clone migration”.

The values above are taken from patent publication US20060057559A1, “High-throughput cell migration screening assay” (Rigel Pharmaceuticals, Inc., priority 2004, published 2006).
